# Assay results taken from US20040235855A1, “Phospholipase C inhibitors for use in treating inflammatory disorders” (priority 2003, published 2004).
# Key:
# [1] = target: T1, human PLC-β2 (Homo sapiens, UniProt Q00722); assay: PLC assay using FlashPlates (96-well, immobilized [3H]PIP2 substrate); assay type: biochemical; details: purified recombinant human PLC-β2 or cytosolic human PLC-β2; hydrolysis of [3H]PIP2
# T1 construct: made in house; host or cells: Sf9 cells (Spodoptera frugiperda), recombinant baculovirus
# T1 sequence (Q00722 whole entry): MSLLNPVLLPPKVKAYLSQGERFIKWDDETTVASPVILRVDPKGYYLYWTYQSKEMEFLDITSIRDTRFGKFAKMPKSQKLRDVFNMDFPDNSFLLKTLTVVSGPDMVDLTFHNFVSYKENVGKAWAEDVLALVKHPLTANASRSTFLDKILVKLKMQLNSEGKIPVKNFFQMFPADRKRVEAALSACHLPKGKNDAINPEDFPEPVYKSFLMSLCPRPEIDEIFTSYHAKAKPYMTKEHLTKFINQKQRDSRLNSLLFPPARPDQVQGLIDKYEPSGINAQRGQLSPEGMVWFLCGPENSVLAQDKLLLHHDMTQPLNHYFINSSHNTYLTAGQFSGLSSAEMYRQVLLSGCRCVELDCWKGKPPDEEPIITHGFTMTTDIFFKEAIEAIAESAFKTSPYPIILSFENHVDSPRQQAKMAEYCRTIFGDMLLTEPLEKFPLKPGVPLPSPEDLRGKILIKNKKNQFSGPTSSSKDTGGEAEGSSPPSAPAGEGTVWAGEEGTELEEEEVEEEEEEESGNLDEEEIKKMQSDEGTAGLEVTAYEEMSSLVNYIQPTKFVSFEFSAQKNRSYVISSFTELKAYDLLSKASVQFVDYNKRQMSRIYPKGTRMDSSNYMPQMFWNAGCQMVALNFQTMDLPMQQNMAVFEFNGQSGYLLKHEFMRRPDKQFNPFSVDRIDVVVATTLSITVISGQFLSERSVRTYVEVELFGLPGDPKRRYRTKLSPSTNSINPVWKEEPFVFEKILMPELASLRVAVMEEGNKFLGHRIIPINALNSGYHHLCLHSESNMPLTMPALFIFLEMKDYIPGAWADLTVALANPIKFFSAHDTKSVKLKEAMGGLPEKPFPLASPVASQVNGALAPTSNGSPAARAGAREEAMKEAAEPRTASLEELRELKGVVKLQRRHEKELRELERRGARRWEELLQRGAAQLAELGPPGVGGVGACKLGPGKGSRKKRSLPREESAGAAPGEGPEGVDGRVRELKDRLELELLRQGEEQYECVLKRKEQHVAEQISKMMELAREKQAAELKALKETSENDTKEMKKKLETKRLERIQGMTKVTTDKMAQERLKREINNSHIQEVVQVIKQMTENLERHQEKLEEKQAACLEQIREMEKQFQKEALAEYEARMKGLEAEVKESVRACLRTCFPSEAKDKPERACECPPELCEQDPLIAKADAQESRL
# Summary of the method: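 Purified recombinant human PLC-β2 (Sf9 baculovirus) or cytosolic PLC-β2 from HL-60 cells hydrolysed [3H]PIP2 immobilised on phospholipid FlashPlates. Reactions ran in 50 mM Tris/HCl pH 7.2 with EDTA, KCl, LiCl, 0.04% DOC and 2 mM CaCl2. Activity was read as loss of bound radioactivity by scintillation counting.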
# [2] = test system: PMA-induced ear edema; assay: Acute PMA-induced ear edema mouse model; assay type: in vivo
# Source text: The acute PMA-induced ear edema mouse model was used to test compounds of the present […] (as described in Carlson R P, O'Neill-Davis L, Chang J. and Lewis A J, Modulation of Mouse Ear Edema by Cyclooxygenase and Lipoxygenase Inhibitors and Other Pharmacologic Agents, Agents and Actions, 1985, 17:197-204).
# [3] = test system: zymosan-induced peritonitis; assay: Zymosan-induced peritonitis mouse model; assay type: in vivo; details: 30 mpk dose administered i.p.
# Source text: The zymosan-induced peritonitis model was used to test Compound 38 (as described in Rao T S, Currie J L, Shaffer A F and Isakson P C, In vivo Characterization of Zymosan-Induced Mouse Peritoneal Inflammation, J. Pharm. Exptl. Ther., 1994, 269: 917-925).
# [4] = test system: adjuvant-induced arthritis; assay: Adjuvant-induced arthritis rat model; assay type: in vivo; details: administered i.p.
# Source text: The adjuvant-induced arthritis rat model was used to test Compound 38 (as described in Anderson G D, Hauser S D, McGarity K L, Bremer M E, Isakson P C and Gregory S A, Selective Inhibition of Cyclooxygenase (Cox)-2 Reverses Inflammation and Expression of Cox-2 and Interleukein 6 in Rat Adjuvant Arthritis, J. Clin. Invest., 1996, 97:2672-2679).
# [5] = test system: PMA-induced ear edema; assay: Chronic PMA-induced ear edema mouse model; assay type: in vivo; details: 0.5 mg dose applied topically
# Source text: The chronic PMA-induced ear edema mouse model was used to test Compound 38 (as described in Stanley P L, Steiner S, Havens M and Tramposch K M, Mouse Skin Inflammation Induced by Multiple Topical Applications of 12-O-Tetradecanoylphorbol-13-acetate, Skin Pharmacol., 1991, 4: 262-271).
# [6] = test system: carageenan-induced paw edema; assay: Carageenan-induced paw edema rat model; assay type: in vivo
# Source text: The carageenan-induced paw edema rat model was used to test Compound 38 (as described in Vinegar R, Truax J F, Selph J L, Johnston P R, Venable A L and McKenzie K K, Pathway to Carrageenan-Induced Inflammation in the Hind Limb of the Rat, Fed. Proc., 1987, 46:118-126).
structure (smiles),measurement,setting,value
"O=C(Nc1cc(C(=O)N2CCNCC2)ccc1N1CCN(C(c2ccccc2)c2ccccc2)CC1)NC1CCCCC1 [Cpd 38, N-cyclohexyl-N′-[2-[4-(diphenylmethyl)-1-piperazinyl]-5-(1-piperazinylcarbonyl)phenyl]-urea]",IC50,[1],2.2 µM
same,% Inhibition,[2]; 5 mpk i.v.,47%
same,% Inhibition,[2]; 30 mpk i.p.,84%
same,% Inhibition,[2]; 30 mpk p.o.,0%
same,inhibition,[3],about 45%
same,inhibition in paws,[4],significant inhibition in both paws
same,inhibition,[5],53%
same,inhibition,[6]; 30 mpk dose administered i.p.,80%
same,inhibition,[6]; 30 mpk dose administered s.c.,60%
